Patent US9085549B2, “Compounds for the treatment of neurodegenerative diseases” (ProteoTech Inc., priority 2011, dated 2015)
Where two headings read alike, the source gives them in different places.

Experiments:
[1] = molecular target: T1, α-synuclein fibrils (Homo sapiens (Human), UniProt P37840); assay: biochemical; settings: 48 h, read-out: Max % Decrease
[2] = molecular target: T1, α-synuclein fibrils; assay: Thioflavin T fluorometry: disruption/disaggregation of pre-formed α-synuclein fibrils; assay type: biochemical; settings: for Emax: 48 h, read-out: Max % Decrease
Procedure: The biological activity of the compounds provided herein as disruptors/inhibitors of Parkinson's disease α-synuclein fibrils was assessed by determining the efficacy of the compounds to cause a disassembly/disruption of pre-formed Parkinson's disease α-synuclein fibrils. In one study, Thioflavin T fluorometry was used to determine the effects of the compounds, and […]).
In one study, Thioflavin T fluorometry was used to determine the effects of the compounds on α-synuclein fibrils. In addition to test compounds, this experiment included a positive control compound and a negative control compound for reference.
For each compound, the % inhibition of Thioflavin T fluorescence (i.e. the decrease compared to control reactions containing α-synuclein alone) was plotted against the log of the concentration of the test compound (expressed as mole ratio relative to α-synuclein).

[3] = molecular target: α-synuclein (Homo sapiens (Human), UniProt P37840); assay: Circular dichroism spectroscopy: inhibition of α-synuclein β-sheet formation; assay type: biochemical; settings: read-out: Max % Inhibition
Procedure: For this purpose, α-synuclein was obtained from rPeptide as a lyophilized salt in 1 mg aliquots. Buffer components and other solvents were obtained from Sigma as A.C.S. Reagent grade or higher. […] After 24 hours, reactions were diluted 20-fold in PBS and CD spectra for each reaction were acquired on a Jasco J-810 spectropolarimeter using a 0.1 cm path length cell. All spectra were recorded with a step size of 0.1 nm, a bandwidth of 1 nm, and an α-synuclein concentration of 0.05 mg/ml. The spectra were trimmed at the shortest wavelength that still provided a dynode voltage less than 600V. The trimmed spectra were then subjected to a data processing routine beginning with noise reduction by Fourier transform followed by subtraction of a blank spectrum (vehicle only without α-synuclein). These blank corrected spectra were then zeroed at 260 nm and the units converted from millidegrees to specific ellipticity.
These percent β-sheet values were then used to provide the respective relative % inhibition of β-sheet induced by the compounds at given molar ratio of test compound:α-synuclein.

[4] = test system: BE-M17 human neuroblastoma cells stably transfected with A53T-mutant human α-synuclein; assay: Thioflavin S staining of rotenone-induced α-synuclein aggregates in cells; assay type: cell-based; settings: for inhibition at 0.5 µM / inhibition at 2 µM / inhibition at 1 µM / inhibition at 5 µM: Homo sapiens, Neuroblastoma cell, read-out: Efficacy % Inhibition
[5] = molecular target: human TauRD (Q244-E372 of Tau441) (Homo sapiens (Human), UniProt P10636); assay: Thioflavin S fluorometry: inhibition of tau protein fibril formation; assay type: biochemical; settings: for IC50: read-out: ThioS (IC50)
Chain of human TauRD (Q244-E372 of Tau441) (P10636 561-689): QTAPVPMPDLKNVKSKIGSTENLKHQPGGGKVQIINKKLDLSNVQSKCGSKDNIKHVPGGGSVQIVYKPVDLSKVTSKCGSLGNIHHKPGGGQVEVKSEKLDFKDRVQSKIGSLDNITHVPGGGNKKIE
Procedure: Methods Mol Biol, 2005. 299: p. 35-51]. […] (with shaking at 800-1000 rpm for day).
The Thio S fluorometry assay as a primary screening method to identify tau protein aggregation inhibitors from our small molecule library. Aggregated tau fibrils were prepared in the presence of equimolar ratios of TauRD and heparin (10 μM each) in 20 mM Na-phosphate buffer, pH7.4. The reaction mixture was incubated at 37° C. with shaking (800-1000 rpm) for 22-24 hr (or for 3 days). In the Thio S inhibition assays, test compounds at 0, 0.1, 1, 10 and 100 μM were added at time 0 into the reaction containing TauRD and heparin. The same reaction mixture (+/− increasing concentrations of compounds) but without TauRD were also set up in parallel to serve as background controls. For all test compounds background fluorescence readings were very low, usually <5% of those of the TauRD-containing wells. For each compound, the IC50 was calculated using Prism version 5 software (GraphPad Software) by nonlinear regression [(Log [inhibitor] vs. normalized response; variable slope)]. […] The Thio S screening results are summarized in Table 7 (in which the reactions were incubated for 22 hours).

[6] = molecular target: TauRD (Homo sapiens (Human), UniProt P10636); assay: Circular dichroism spectroscopy: tau protein β-sheet formation
Chain of TauRD (P10636 561-689): as above
Procedure: CD spectroscopy was also performed to determine each compound's potency in inhibiting β-sheet secondary structure in TauRD under aggregation-prone conditions. The CD spectroscopy and Thio S assays were typically analyzed in parallel from the same sample preparation in order to correlate the results from two independent assays. CD spectra were taken from the samples containing +/− TauRD with increasing concentrations of compounds, and collected at 25° C. on a JASCO Model J-810 Spectropolarimeter. […] Since CD spectra reflect a total population of secondary structures (including random coil, β-sheet, and various intermediate conformers) of TauRD proteins under a given condition, the CD scores were established based on (1) the CD spectra derived from TauRD mixtures with different ratios of random coil/β-sheet; (2) time-dependent conformational changes of TauRD.

[7] = molecular target: T1, α-synuclein fibrils
[8] = test system: A53T α-synuclein-expressing BE-M17 cells; assay: XTT assay: rotenone-induced cell death; assay type: cell-based, human
[9] = Thioflavin T fluorescence, 2-day incubation
[10] = inhibition of β-sheet formation, 24 hours
[11] = rotenone 0.5 μM, compound 0.5 μM
[12] = Homo sapiens, read-out: Max % Inhibition
[13] = TauRD and heparin 10 μM each, incubated for 22 hours
[14] = Homo sapiens; read-out: Max % Inhibition
[15] = Homo sapiens, read-out: % inhibition of cell death

SMILES: Oc1ccc(-c2nc3cc(O)c(O)cc3o2)cc1O [SA-54]
- Emax [1]: 57%
- Emax [2, 9]: 98%
- Emax [3, 10]: 100%
- inhibition at 0.5 µM [4, 11]: 80%
- inhibition at 2 µM ([4]; rotenone 0.5 μM, compound 2 μM): 83%
- inhibition at 1 µM ([4]; rotenone 2 μM, compound 1 μM): 56%

SMILES: Oc1ccc(-c2nnc(-c3cc(O)c(O)cc3Br)o2)cc1O [SA-55]
- ThioS (IC50, μM) [5]: no inhibition
- CD [6]: −

SMILES: Oc1ccc(-c2nsc(-c3ccc(O)c(O)c3)n2)cc1O [SA-57]
- % inhibition of Congo red binding ([7]; test compound:α-synuclein molar ratio of 5:1): 49%
- % inhibition of Congo red binding ([7]; test compound:α-synuclein molar ratio of 50:1): 66%
- Emax [1]: 66%
- Emax [2, 9]: 100%
- % inhibition of Thioflavin T fluorescence ([2]; test compound:α-synuclein molar ratio of 1:1): 83%
- % inhibition of Thioflavin T fluorescence ([2]; test compound:α-synuclein molar ratios ≧5:1): 97-100%
- Emax [3, 10]: 100%

SMILES: Oc1ccc(-c2cc(Br)c(-c3ccc(O)c(O)c3)s2)cc1O [SA-59]
- Efficacy % Inhibition [4]: 67%
- inhibition at 1 µM [4]: 69%
- inhibition at 2 µM [4]: 76%
- inhibition at 5 µM [4]: 56%
- IC50 ([8]; Homo sapiens): 3.1 µM
- Emax [8, 12]: 63%

SMILES: COc1ccc(-c2cc(-c3ccc(OC)c(OC)c3)c(-c3ccc(OC)c(OC)c3)s2)cc1OC [SA-60, 2,3,5-tri(3′,4′-dimethoxyphenyl)thiophene]
- ThioS (IC50, μM) [5, 13]: no inhibition
- inhibition of rotenone-induced cell death (in words) [8]: significant, dose-dependent inhibition
- IC50 ([8]; Homo sapiens): 12.5 µM
- Emax [8, 12]: 33%

SMILES: Oc1ccc(-c2ccc(Br)s2)cc1O [SA-62]
- ThioS (IC50, μM) [5, 13]: no inhibition

SMILES: Oc1ccc(-c2ccc(-c3cc(O)c(O)c(O)c3)s2)cc1O [SA-63, 5-(5-(3,4-dihydroxyphenyl)thiophen-2-yl)benzene-1,2,3-triol]
- IC50 [5, 13]: 10.1 ± 0.56 µM
- CD ([6]; semi-quantitative CD score, aggregated TauRD): +

SMILES: Oc1ccc(-c2cnc(-c3ccc(O)c(O)c3)s2)cc1O [SA-64]
- IC50 [5, 13]: 17.6 µM
- Emax [1]: 85%
- Emax [2, 9]: 100%
- Emax [3, 10]: 100%
- IC50 ([8]; Homo sapiens; read-out: IC50): 2.6 µM
- Emax [8, 14]: 100%

SMILES: Oc1ccc(-c2nnc(-c3ccc(O)c(O)c3)o2)cc1O [SA-67]
- Emax [1]: 25%
- Emax [2, 9]: 76%
- Emax [3, 10]: 100%
- inhibition at 0.5 µM [4, 11]: 75%
- inhibition at 1 µM ([4]; rotenone 0.5 μM, compound 1 μM): 48%
- inhibition at 2 µM ([4]; rotenone 0.5 μM, compound 2 μM): 92%
- IC50 ([8]; Homo sapiens; read-out: IC50): 8.5 µM
- Emax [8, 14]: 44%

SMILES: Oc1ccc(-c2cn(-c3ccc(O)c(O)c3)nn2)cc1O [SA-68]
- Emax [2]: 100%
- Emax ([3]; 24 h): 100%
- inhibition at 1 µM ([4]; rotenone 0.5 μM, compound 1 μM): 69%
- inhibition at 5 µM ([4]; rotenone 0.5 μM, compound 5 μM): 73%
- inhibition at 5 µM ([4]; rotenone 2 μM, compound 5 μM): 44%
- IC50 ([8]; Homo sapiens; read-out: IC50): 24 µM
- Emax [8, 14]: 61%

SMILES: Oc1ccc(-c2cnc(-c3ccc(O)c(O)c3)o2)cc1O [SA-70]
- Emax [1]: 88%
- Emax [2]: 100%
- Emax ([3]; 24 h): 92%
- IC50 ([8]; Homo sapiens): 5.6 µM
- Emax [8, 12]: 78%

SMILES: Oc1ccc(-c2cnco2)cc1O [SA-73]
- Max % Decrease ([7]; Congo red binding, 2-day incubation): 35%
- EC50 (mole ratio) ([7]; Congo red binding, moles of test compound per mole of α-synuclein, 2 days): 1.1 mole ratio
- Max % Decrease [2, 9]: 100%
- EC50 (mole ratio) ([2]; Thioflavin T fluorescence, moles of test compound per mole of α-synuclein, 6.9 μM pre-formed fibrils, 2 days): 0.52 mole ratio
- disruption/disassembly of preformed α-synuclein fibrils (in words) ([2]; molar ratios 50:1 to 0.01:1): dose-dependent and extensive disruption/disassembly
- inhibition of rotenone-induced cell death (in words) ([8]; 500 nM rotenone): significant, dose-dependent inhibition
- Max % Inhibition ([8]; inhibition of cell death, 500 nM rotenone): 77%
- IC50 ([8]; inhibition of cell death, 500 nM rotenone; read-out: IC50): 35 to 75 µM

SMILES: Oc1ccc(Cc2cc(O)c(O)cc2I)cc1O [SA-93]
- Emax [1]: 62%
- Emax [2, 9]: 100%
- Emax [3, 10]: 91%
- inhibition at 2 µM ([4]; rotenone 2 μM, compound 2 μM): 45%
- IC50 ([8]; Homo sapiens; read-out: IC50): 19.8 µM
- Emax [8, 14]: 100%

SMILES: O=C(/C=C/c1ccc(O)c(O)c1)c1ccc(O)c(O)c1 [SA-94]
- Emax [1]: 65%
- Emax [2]: 100%
- Emax ([3]; 24 h): 95%
- inhibition at 0.5 µM [4]: 70%
- inhibition at 1 µM [4]: 63%
- inhibition at 2 µM [4]: 85%
- IC50 ([8]; Homo sapiens): 2.3 µM
- inhibition at 3.5 µM [8, 15]: 35%
- inhibition at 15 µM [8, 15]: 58%
- Emax [8, 12]: 58%

SMILES: O=C(/C=C/c1cc(O)c(O)cc1Br)c1ccc(O)c(O)c1 [SA-95]
- Emax [1]: 64%
- Emax [2, 9]: 100%
- Emax [3, 10]: 97%
- inhibition at 0.5 µM [4, 11]: 73%
- inhibition at 1 µM ([4]; rotenone 0.5 μM, compound 1 μM): 98%
- inhibition at 2 µM ([4]; rotenone 0.5 μM, compound 2 μM): 90%
- inhibition at 0.5 µM ([4]; rotenone 2 μM, compound 0.5 μM): 95%
- IC50 ([8]; Homo sapiens; read-out: IC50): 3.8 µM
- Emax [8, 14]: 63%

SMILES: O=C(/C=C/c1ccc(O)c(O)c1)c1cc(O)c(O)cc1Br [SA-96]
- Emax [1]: 72%
- Emax [2]: 100%
- Emax ([3]; 24 h): 100%
- inhibition at 0.5 µM [4]: 73%
- inhibition at 1 µM [4]: 82%
- inhibition at 2 µM [4]: 81%
- IC50 ([8]; Homo sapiens): 4.3 µM
- Emax [8, 12]: 61%

SMILES: Oc1ccc(Cc2cc(O)c(O)cc2O)cc1O [SA-97]
- Emax [1]: 40%
- Emax [2, 9]: 99%
- Emax [3, 10]: 100%
- IC50 ([8]; Homo sapiens; read-out: IC50): 39 µM
- Emax [8, 14]: 42%

SMILES: CC(=O)N1N=C(c2ccc(O)c(O)c2)CC1c1ccc(O)c(O)c1 (centres unmarked) [SA-98]
- Emax [1]: 44%
- Emax [2]: 100%
- Emax ([3]; 24 h): 100%
- inhibition at 0.5 µM [4]: 74%
- inhibition at 1 µM [4]: 76%
- IC50 ([8]; Homo sapiens): 48 µM
- Emax [8, 12]: 56%

SMILES: O=[N+]([O-])c1cc(-c2ccc(O)c(O)c2)ccc1-c1ccc(O)c(O)c1 [SA-99]
- Emax [1]: 54%
- Emax [2, 9]: 100%
- Emax [3, 10]: 98%
